Measurements: patent publication US11331299B2, “Medicinal use of serrulatane diterpenes” (The University of Sydney, priority 2016, dated 2022)
Like-named read-outs stand apart in the source and are kept apart here.

Key:
[1] = molecular target: Histamine N-methyltransferase (h) (Homo sapiens, UniProt P50135); assay: Epigenetic enzyme assay, Small molecule methyltransferases; type: biochemical; conditions: read-out: % Inhibition of Control Values
Deacetylase, Histone 1 = molecular target: T1, Deacetylase, Histone 1 (Homo sapiens, UniProt Q13547); assay: Deacetylase, Histone 1 (PanLab); type: biochemical
T1 construct: host or cells: Insect Sf9 cells
T1 sequence (Q13547 whole entry): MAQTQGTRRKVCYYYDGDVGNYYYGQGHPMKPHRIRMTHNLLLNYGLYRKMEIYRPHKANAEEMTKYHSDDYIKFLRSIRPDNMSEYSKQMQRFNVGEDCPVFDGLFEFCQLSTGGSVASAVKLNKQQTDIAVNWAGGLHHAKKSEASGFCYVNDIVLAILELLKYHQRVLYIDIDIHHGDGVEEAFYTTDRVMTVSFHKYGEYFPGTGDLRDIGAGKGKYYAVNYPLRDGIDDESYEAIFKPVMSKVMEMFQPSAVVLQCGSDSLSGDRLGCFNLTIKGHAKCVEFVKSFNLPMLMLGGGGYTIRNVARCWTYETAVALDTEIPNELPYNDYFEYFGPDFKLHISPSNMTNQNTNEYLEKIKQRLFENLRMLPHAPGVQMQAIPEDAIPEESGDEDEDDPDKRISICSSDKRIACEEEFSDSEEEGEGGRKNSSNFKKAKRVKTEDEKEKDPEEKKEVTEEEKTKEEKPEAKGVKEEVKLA
Experimental: (§1) The in vitro pharmacological studies were conducted by Eurofins PanLab (Taiwan) using the parameters shown in Table 13 with respect to appropriate literature references.

CBX8 (h) chromodomain = molecular target: T2, CBX8 (h) chromodomain (Homo sapiens, UniProt Q9HC52); assay: Epigenetic binding assay, Chromodomain; conditions: read-out: % Inhibition of Control Specific Binding
T2 construct: Recognition and specificity determinants of the human cbx chromodomains; Eurofins CEREP (France), contract laboratory
T2 sequence (Q9HC52 11-69 limits assumed): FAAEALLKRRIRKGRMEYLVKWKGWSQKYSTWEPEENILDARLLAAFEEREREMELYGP

H3K4 me2 = assay: Cell-based detection methyl modifications; conditions: read-out: % Inhibition of Control Values
PHIP(2) (h) bromodomain = molecular target: T3, PHIP(2) (h) bromodomain (Homo sapiens, UniProt Q8WWQ0); assay: Epigenetic binding assay, Bromodomain; conditions: 10 μM; read-out: % Inhibition of Control Specific Binding
T3 construct: Bromodomain

Histamine H4 = molecular target: T4, Histamine H4 (Homo sapiens, UniProt Q9H3N8); assay: Histamine H4 radio ligand binding
T4 construct: expressed in transfected cells; host or cells: Chem-1 cells
T4 sequence (Q9H3N8 whole entry): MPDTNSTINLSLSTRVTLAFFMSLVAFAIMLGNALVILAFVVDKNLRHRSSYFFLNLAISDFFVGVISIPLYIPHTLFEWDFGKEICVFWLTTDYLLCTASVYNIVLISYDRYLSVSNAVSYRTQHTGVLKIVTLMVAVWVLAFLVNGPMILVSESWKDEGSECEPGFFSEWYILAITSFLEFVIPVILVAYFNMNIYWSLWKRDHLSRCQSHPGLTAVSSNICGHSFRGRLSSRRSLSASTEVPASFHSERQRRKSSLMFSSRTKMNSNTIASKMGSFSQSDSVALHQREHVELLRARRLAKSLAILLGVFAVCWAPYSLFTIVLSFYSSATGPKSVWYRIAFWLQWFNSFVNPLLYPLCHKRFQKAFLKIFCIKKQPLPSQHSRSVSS
Experimental: as §1

[2] = tested on: 43 cancer cell lines and one normal cell line; assay: In vitro cell viability assay (intracellular ATP, 72 hour); type: cell-based; conditions: 10 μM
TIP60(h) = TIP60(h) (Homo sapiens, UniProt Q92993); assay: Epigenetic enzyme assay, Histone acetyltransferases (HATs); type: biochemical; conditions: read-out: % Inhibition of Control Values
Chain of TIP60(h) (Q92993 whole entry): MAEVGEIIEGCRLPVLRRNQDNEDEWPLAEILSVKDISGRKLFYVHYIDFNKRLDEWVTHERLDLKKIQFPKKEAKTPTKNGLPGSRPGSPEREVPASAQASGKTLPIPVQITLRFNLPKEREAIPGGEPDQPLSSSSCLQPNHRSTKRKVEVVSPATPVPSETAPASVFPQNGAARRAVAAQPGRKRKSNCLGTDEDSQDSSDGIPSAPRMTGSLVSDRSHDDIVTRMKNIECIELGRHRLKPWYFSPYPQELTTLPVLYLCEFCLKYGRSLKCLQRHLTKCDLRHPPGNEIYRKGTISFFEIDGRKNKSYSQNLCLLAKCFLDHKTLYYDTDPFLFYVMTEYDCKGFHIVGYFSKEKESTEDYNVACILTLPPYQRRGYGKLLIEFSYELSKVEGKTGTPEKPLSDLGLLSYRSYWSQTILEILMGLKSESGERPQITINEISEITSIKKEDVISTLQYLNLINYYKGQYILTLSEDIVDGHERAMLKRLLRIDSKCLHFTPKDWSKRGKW

JMJD2A (h) = molecular target: T5, JMJD2A (h) (Homo sapiens, UniProt O75164); assay: Epigenetic enzyme assay, Demethylases (KDMs); type: biochemical; conditions: read-out: % Inhibition of Control Values
T5 sequence (O75164 1-1064): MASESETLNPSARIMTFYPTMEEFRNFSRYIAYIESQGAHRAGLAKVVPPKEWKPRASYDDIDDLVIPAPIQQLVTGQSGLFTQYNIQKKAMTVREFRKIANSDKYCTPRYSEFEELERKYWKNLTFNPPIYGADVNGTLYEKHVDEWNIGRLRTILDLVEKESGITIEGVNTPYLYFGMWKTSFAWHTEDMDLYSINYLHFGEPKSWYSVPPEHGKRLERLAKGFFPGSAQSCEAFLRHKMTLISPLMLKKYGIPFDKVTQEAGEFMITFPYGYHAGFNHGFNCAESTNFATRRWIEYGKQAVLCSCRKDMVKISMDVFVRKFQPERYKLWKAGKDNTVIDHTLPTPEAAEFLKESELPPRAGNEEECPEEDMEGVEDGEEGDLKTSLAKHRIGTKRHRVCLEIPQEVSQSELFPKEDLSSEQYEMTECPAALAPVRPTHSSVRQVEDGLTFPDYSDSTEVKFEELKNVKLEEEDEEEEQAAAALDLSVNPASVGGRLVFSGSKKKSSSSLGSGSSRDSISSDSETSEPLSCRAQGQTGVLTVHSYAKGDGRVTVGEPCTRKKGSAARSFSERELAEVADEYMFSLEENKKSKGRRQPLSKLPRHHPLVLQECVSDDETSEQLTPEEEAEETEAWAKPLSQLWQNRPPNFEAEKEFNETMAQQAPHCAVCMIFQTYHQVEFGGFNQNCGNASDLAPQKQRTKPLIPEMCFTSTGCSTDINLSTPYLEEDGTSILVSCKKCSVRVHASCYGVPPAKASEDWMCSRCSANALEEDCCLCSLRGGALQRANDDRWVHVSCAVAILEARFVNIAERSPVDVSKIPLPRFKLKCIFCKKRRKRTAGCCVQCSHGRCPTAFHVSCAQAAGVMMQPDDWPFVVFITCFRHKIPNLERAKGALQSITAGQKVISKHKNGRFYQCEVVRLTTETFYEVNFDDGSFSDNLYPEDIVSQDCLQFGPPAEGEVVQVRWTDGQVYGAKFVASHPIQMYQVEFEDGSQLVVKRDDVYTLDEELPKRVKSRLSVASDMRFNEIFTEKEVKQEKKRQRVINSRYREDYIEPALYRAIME

[3] = assay year 2015, read-out: % Control Response
[4] = LL/2 (Non-Small Cell Lung Cancer)
[5] = NCI-H460 (Non-Small Cell Lung Cancer)
[6] = PC-6 (Non-Small Cell Lung Cancer)

Chain of Histamine N-methyltransferase (h) (P50135 whole entry): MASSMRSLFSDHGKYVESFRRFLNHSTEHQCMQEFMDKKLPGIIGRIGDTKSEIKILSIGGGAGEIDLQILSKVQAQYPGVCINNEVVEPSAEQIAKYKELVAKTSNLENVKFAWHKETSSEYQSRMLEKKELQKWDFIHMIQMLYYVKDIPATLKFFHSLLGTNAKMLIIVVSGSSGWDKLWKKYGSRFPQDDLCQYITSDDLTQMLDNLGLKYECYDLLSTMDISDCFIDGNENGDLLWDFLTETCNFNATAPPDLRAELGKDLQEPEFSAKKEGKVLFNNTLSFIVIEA

CC(C)=CCC[C@@H]1COc2c(C)cc(O)c3c2[C@H]1CC[C@H]3C [Compound 3, 5,18-epoxy-8-hydroxyserrulat-14-ene]
inhibition at 10 µM [1]: 18%
% control response at 10 µM (Deacetylase, Histone 1; assay year 2015): -26%
inhibition at 10 µM (CBX8 (h) chromodomain): 23%
inhibition at 10 µM (H3K4 me2): -9%
inhibition at 10 µM (PHIP(2) (h) bromodomain): 23%
remaining activity at 10 µM (Histamine H4; [3]): 10%
effect on cell viability ([2]; all 44 cell lines): no significant effect
% Cell growth ([2]; 4T1 (Breast Cancer)): 99%
% Cell growth ([2]; A375 (Skin)): 100%
% Cell growth ([2]; A-431 (Skin)): 102%
% Cell growth ([2]; A-498 (Kidney Cancer)): 92%
% Cell growth ([2]; ACHN (Kidney Cancer)): 105%
% Cell growth ([2]; B16-F0 (Melanoma)): 116%
% Cell growth ([2]; BT474 (Breast Cancer)): 108%
% Cell growth ([2]; CT26.WT (Colon Cancer)): 103%
% Cell growth ([2]; DLD-1 (Colon Cancer)): 101%
% Cell growth ([2]; H33HJ-JA1 (Lymphoma)): 90%
% Cell growth ([2]; HC-4 (Liver Cancer)): 105%
% Cell growth ([2]; HCT-15 (Colon Cancer)): 116%
% Cell growth ([2]; HCT-116 (Colon Cancer)): 99%
% Cell growth ([2]; HT-29 (Colon Cancer)): 101%
% Cell growth ([2]; Hep3B (Liver Cancer)): 84%
% Cell growth ([2]; HepG2 (Liver Cancer)): 103%
% Cell growth ([2]; K-562 (Leukemia)): 93%
% Cell growth ([2]; KATO III (Stomach)): 105%
% Cell growth [2, 4]: 111%
% Cell growth ([2]; LNCaP (Prostrate Cancer)): 84%
% Cell growth ([2]; MCF7 (Breast Cancer)): 112%
% Cell growth ([2]; MCF-7 AdrR (Breast Cancer)): 101%
% Cell growth ([2]; MDA-MB-231 (Breast Cancer)): 100%
% Cell growth ([2]; MDA-MB-468 (Breast Cancer)): 85%
% Cell growth ([2]; MES-SA (Uterus)): 94%
% Cell growth ([2]; MIA PaCa-2 (Pancreas)): 106%
% Cell growth ([2]; MOLT-4 (Leukemia)): 77%
% Cell growth ([2]; MV-411 (Leukemia)): 76%
% Cell growth [2, 5]: 100%
% Cell growth ([2]; OVCAR-3 (Ovarian Cancer)): 86%
% Cell growth ([2]; PANC-1 (Pancreas)): 116%
% Cell growth ([2]; PC-3 (Prostrate Cancer)): 64%
% Cell growth [2, 6]: 96%
% Cell growth ([2]; Ramos (Lymphoma)): 129%
% Cell growth ([2]; SK-MEL-5 (Melanoma)): 118%
% Cell growth ([2]; SK-N-MC (Brain)): 82%
% Cell growth ([2]; SK-OV-3 (Ovarian Cancer)): 98%
% Cell growth ([2]; SW-620 (Colon Cancer)): 107%
% Cell growth ([2]; T-47D (Breast Cancer)): 119%
% Cell growth ([2]; U937 (Lymphoma)): 105%
% Cell growth ([2]; U-87 MG (Brain)): 111%
inhibition at 10 µM (TIP60(h)): -3%
inhibition at 10 µM (JMJD2A (h)): 12%

CC(C)=CCC[C@@H]1C(O)Oc2c(C)cc(O)c3c2[C@H]1CC[C@H]3C (stereo partly drawn) [Compound 2, 5,18-epoxyserrulat-14-en-8,18-diol]
inhibition at 10 µM [1]: -2%
% control response at 10 µM (Deacetylase, Histone 1; assay year 2014): 23%
% control response at 10 µM (Deacetylase, Histone 1; assay year 2015): -18%
inhibition at 10 µM (CBX8 (h) chromodomain): 31%
inhibition at 10 µM (H3K4 me2): -1%
inhibition at 10 µM (PHIP(2) (h) bromodomain): 30%
remaining activity at 10 µM (Histamine H4; assay year 2014, read-out: % Control Response): 16%
remaining activity at 10 µM (Histamine H4; [3]): -1%
effect on cell viability ([2]; remaining cell lines (other than HL-60)): no significant effect
% Cell growth ([2]; 4T1 (Breast Cancer)): 60%
% Cell growth ([2]; A375 (Skin)): 74%
% Cell growth ([2]; A-431 (Skin)): 100%
% Cell growth ([2]; A-498 (Kidney Cancer)): 91%
% Cell growth ([2]; ACHN (Kidney Cancer)): 101%
% Cell growth ([2]; B16-F0 (Melanoma)): 123%
% Cell growth ([2]; BT474 (Breast Cancer)): 118%
% Cell growth ([2]; CT26.WT (Colon Cancer)): 120%
% Cell growth ([2]; DLD-1 (Colon Cancer)): 95%
% Cell growth ([2]; H33HJ-JA1 (Lymphoma)): 57%
% Cell growth ([2]; HC-4 (Liver Cancer)): 104%
% Cell growth ([2]; HCT-15 (Colon Cancer)): 94%
% Cell growth ([2]; HCT-116 (Colon Cancer)): 81%
% Cell growth ([2]; HT-29 (Colon Cancer)): 107%
% Cell growth ([2]; Hep3B (Liver Cancer)): 87%
% Cell growth ([2]; HepG2 (Liver Cancer)): 95%
% Cell growth ([2]; K-562 (Leukemia)): 69%
% Cell growth ([2]; KATO III (Stomach)): 84%
% Cell growth [2, 4]: 105%
% Cell growth ([2]; LNCaP (Prostrate Cancer)): 73%
% Cell growth ([2]; MCF7 (Breast Cancer)): 114%
% Cell growth ([2]; MCF-7 AdrR (Breast Cancer)): 92%
% Cell growth ([2]; MDA-MB-231 (Breast Cancer)): 97%
% Cell growth ([2]; MDA-MB-468 (Breast Cancer)): 37%
% Cell growth ([2]; MES-SA (Uterus)): 75%
% Cell growth ([2]; MIA PaCa-2 (Pancreas)): 92%
% Cell growth ([2]; MOLT-4 (Leukemia)): 38%
% Cell growth ([2]; MV-411 (Leukemia)): 37%
% Cell growth [2, 5]: 88%
% Cell growth ([2]; OVCAR-3 (Ovarian Cancer)): 67%
% Cell growth ([2]; PANC-1 (Pancreas)): 87%
% Cell growth ([2]; PC-3 (Prostrate Cancer)): 99%
% Cell growth [2, 6]: 92%
% Cell growth ([2]; Ramos (Lymphoma)): 33%
% Cell growth ([2]; SK-MEL-5 (Melanoma)): 95%
% Cell growth ([2]; SK-N-MC (Brain)): 73%
% Cell growth ([2]; SK-OV-3 (Ovarian Cancer)): 82%
% Cell growth ([2]; SW-620 (Colon Cancer)): 97%
% Cell growth ([2]; T-47D (Breast Cancer)): 104%
% Cell growth ([2]; U937 (Lymphoma)): 102%
% Cell growth ([2]; U-87 MG (Brain)): 101%
inhibition at 10 µM (TIP60(h)): 10%
inhibition at 10 µM (JMJD2A (h)): -10%
